Assay results as given in patent publication US7842700B2, “Crystals of isopropyl ester of N-(2,6-dichlorobenzoyl)-4-[6-(methylamino)methyl-1-methyl-2,4-dioxo-1,4-dihydroquinazoline-3(2H)-yl]-L-phenylalanine hydrochloride, production method thereof and use thereof” (Ajinomoto Co., Inc., priority 2005, dated 2010).

Experiments:
[1] = tested on: lymphocytes in the peripheral blood; assay: Activity to elevate the number of lymphocytes in the peripheral blood in a rat; assay type: in vivo; conditions: 30 mg/kg oral, male Wistar rats, 12 hours after administration, control = 100%
Description: Activity to Elevate the Number of Lymphocytes in the Peripheral Blood in a Rat
Therefore, the activity of the compound of the formula (I) to elevate the number of lymphocytes in the rat was examined.
The dosing solution was prepared by dissolving the compound of the formula (I) in dimethylsulfoxide, adding a mixed solution of polyethylene glycol 400: propylene glycol=1:1 thereto and turning it upside and down repeatedly. The final concentration of DMSO was adjusted to 2.5%.
The dosing solution of a test substance (30 mg/kg) was orally administered to male Wistar rats (6 to 8 weeks age) in the amount of 4 mL/kg. After the settled time points after the administration, the blood was drawn from the abdominal large vein under anesthesia and mixed in an EDTA-2K coated container for blood collection. Then, the number of lymphocytes in the peripheral blood was determined by an automated comprehensive hematology analyzer (SF-3000, Sysmex). The test was conducted in n=5, and the ratio (%) of the number of lymphocytes in the peripheral blood in a test substance-administered group to that in a vehicle-treated group (a control group) was calculated while the average value of the number of lymphocytes in the peripheral blood in a control group was determined to be 100%.

[2] = Preservation stability test; assay type: physicochemical; conditions: 4 weeks; 40° C./75% relative humidity opened, 60° C./opened, vs room temperature/closed control
Description: Preservation Stability Test
Crystal form Cl5, crystal form Br5 and crystal form A were preserved in the following condition, and then the amount of impurities in each sample was compared. However, the increase in the impurities by heating was not observed.
• 40° C./75% relative humidity—opened • 60° C./opened • Room temperature/closed (control)

[3] = Powder X-ray diffraction measurement under the control of relative humidity; assay type: physicochemical; conditions: dry: 50° C. under reduced pressure; wet: 85% relative humidity
Description: Powder X-Ray Diffraction Measurement Under the Control of Relative Humidity
The powder X-ray diffraction of each of crystal form Cl5 and crystal form Mal2 was measured in the following condition, and the diffraction patterns between dry one and wet one were compared. However, there was no difference thereof in each crystal.
Drying condition (dry): measurement of a sample with drying it at 50° C. under reduced pressure
Humid condition (wet): measurement of a sample under 85% relative humidity
Powder diffractometer: RINT2100S by RIGAKU (and a temperature and humidity attachment for said diffractometer) Humidity generator: SRH-1R Shinei Co., Inc.

## CNCc1ccc2c(c1)c(=O)n(-c1ccc(C[C@H](NC(=O)c3c(Cl)cccc3Cl)C(=O)OC(C)C)cc1)c(=O)n2C [compound of the formula (I), isopropyl ester of N-(2,6-dichlorobenzoyl)-4-[6-(methylamino)methyl-1-methyl-2,4-dioxo-1,4-dihydroquinazoline-3(2H)-yl]-L-phenylalanine]
[1]
  ratio (%) of the number of lymphocytes in the peripheral blood to that in a vehicle-treated group: ≥ 150%

## CNCc1ccc2c(c1)c(=O)n(-c1ccc(C[C@H](NC(=O)c3c(Cl)cccc3Cl)C(=O)OC(C)C)cc1)c(=O)n2C [crystal form Cl5]
[2]
  increase in the impurities by heating: not observed
[3]
  difference of powder X-ray diffraction patterns between dry and wet: no difference
